This note sets out measurements from patent US20240343704A1, “HALO-SUBSTITUTED AMINO PYRIDINE COMPOUNDS AS INHIBITORS OF THE HAEMATOPOIETIC PROGENITOR KINASE 1 (HPK1)” (priority 2021, published 2024).

Test [1] concerns the target T1, Recombinant (1-346) HPK1 (h) (Homo sapiens, UniProt Q92918).
T1 construct: Recombinant (1-346) HPK1 (h) is incubated with 8 mM MOPS pH 7.0
T1 sequence (Q92918 1-346): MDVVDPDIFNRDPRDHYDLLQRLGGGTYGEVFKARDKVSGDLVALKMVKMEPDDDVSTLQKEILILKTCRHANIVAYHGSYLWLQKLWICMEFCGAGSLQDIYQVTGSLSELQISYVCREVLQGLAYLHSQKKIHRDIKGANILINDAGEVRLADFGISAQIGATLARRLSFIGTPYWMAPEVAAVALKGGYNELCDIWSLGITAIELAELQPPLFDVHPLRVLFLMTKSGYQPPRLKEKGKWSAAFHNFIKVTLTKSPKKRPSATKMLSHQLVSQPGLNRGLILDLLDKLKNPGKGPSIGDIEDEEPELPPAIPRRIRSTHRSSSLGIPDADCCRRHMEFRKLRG
The test can be described thus: HPK1 Human STE Kinase Enzymatic Radiometric Assay. The format is biochemical. The conditions noted are these: read-out: HPK1 IC50 nM Range*. The protocol:
A stock solution of 10 mM of test compound is prepared in DMSO. The compound plate was prepared by 3-fold and 9-point serial dilutions. […] The reaction is initiated by The addition of the Mg/ATP mix. After incubation for 40 minutes at RT, the reaction is stopped by the addition of phosphoric acid to a concentration of 0.5%.

The next test addresses Lck (h) (Homo sapiens, UniProt P06239). The experiment in a line: Lck Human  Kinase Enzymatic Radiometric Assay. It is filed as biochemical. The procedure, abridged: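 Substrate 33P-incorporation measured by scintillation counting after spotting on P30 filtermat and phosphoric acid washes. Human Lck reacted 40 min at RT in 50 mM Tris pH 7.5 with 10 mM MgAcetate, [gamma-33P]-ATP, 250 uM Cdc2 peptide, 0.1 mM EGTA and 0.1 mM Na3VO4.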

Counter-ions that a name gives are not always drawn. Like-named read-outs stand apart in the source and are kept apart here.

Chain of Lck (h) (P06239 whole entry): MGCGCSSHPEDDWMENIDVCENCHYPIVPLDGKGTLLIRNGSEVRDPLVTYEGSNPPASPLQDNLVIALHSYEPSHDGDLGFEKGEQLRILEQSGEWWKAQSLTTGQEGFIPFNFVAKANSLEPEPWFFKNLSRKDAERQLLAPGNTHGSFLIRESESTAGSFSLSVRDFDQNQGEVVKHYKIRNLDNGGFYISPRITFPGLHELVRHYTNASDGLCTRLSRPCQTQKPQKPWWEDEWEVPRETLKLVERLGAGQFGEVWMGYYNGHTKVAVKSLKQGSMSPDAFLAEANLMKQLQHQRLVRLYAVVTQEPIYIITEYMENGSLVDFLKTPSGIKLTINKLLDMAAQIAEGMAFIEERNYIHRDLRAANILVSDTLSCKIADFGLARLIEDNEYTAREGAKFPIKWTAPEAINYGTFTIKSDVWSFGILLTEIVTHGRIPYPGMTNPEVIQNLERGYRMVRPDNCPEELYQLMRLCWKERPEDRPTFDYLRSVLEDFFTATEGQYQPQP

By IC50 is commonly meant the midpoint of a concentration-inhibition curve. Regarding `N#Cc1cc(-c2cc(-c3ccc4c(c3)CCNC4=O)c(N)nc2F)ccc1OC1CCNCC1` [I-184, 5-(6-amino-2-fluoro-5-(1-oxo-1,2,3,4-tetrahydroisoquinolin-6-yl)pyridin-3-yl)-2-(piperidin-4-yloxy)benzonitrile], the figures for the IC50 (in test [1]; at Lck (h) (read-out: Lck IC50 nM Range*)) were 11 to 100 nM and above 1000 nM, respectively.

Turning to `Nc1nc(F)c(-c2ccc3c(c2)CCC2(CCNCC2)O3)cc1-c1ccc2c(c1)CCNC2=O` [I-183, 6-(2-amino-6-fluoro-5-(spiro[chromane-2,4′-piperidin]-6-yl)pyridin-3-yl)-3,4-dihydroisoquinolin-1(2H)-one], the results for the IC50 (in test [1]; at Lck (h) (read-out: Lck IC50 nM Range*)) were 0.1 to 10 nM and above 1000 nM, respectively.

Regarding `Nc1nc(F)c(-c2ccc(OC3CNC3)cc2)cc1-c1cc2c(cc1F)C(=O)NCC2` [I-339, 6-(2-amino-5-(4-(azetidin-3-yloxy)phenyl)-6-fluoropyridin-3-yl)-7-fluoro-3,4-dihydroisoquinolin-1(2H)-one 2,2,2-trifluoroacetate], the IC50 is 11 to 100 nM in test [1] and above 1000 nM at Lck (h) (read-out: Lck IC50 nM Range*).

In the case of `CC1(C)CC(Oc2ccc(-c3cc(-c4ccc5c(c4)CCNC5=O)c(N)nc3F)cc2)CCN1` (stereo not shown) [I-147, 6-(2-amino-5-(4-((2,2-dimethylpiperidin-4-yl)oxy)phenyl)-6-fluoropyridin-3-yl)-3,4-dihydroisoquinolin-1(2H)-one], the 50% inhibitory concentration (IC50) is 0.1 to 10 nM in test [1] and above 1000 nM at Lck (h) (read-out: Lck IC50 nM Range*).

With `CC(=O)N1CCN(c2ccc(-c3cc(-c4ccc5c(c4)CCNC5=O)c(N)nc3F)nc2)CC1` [I-591, 6-(5-(4-acetylpiperazin-1-yl)-6′-amino-2′-fluoro-[2,3′-bipyridin]-5′-yl)-3,4-dihydroisoquinolin-1(2H)-one], the IC50 in test [1] was 0.1 to 10 nM; on Lck (h) (read-out: Lck IC50 nM Range*) it was above 1000 nM.

As for `CC(C)(O)CN1C[C@H]2C[C@@]2(c2ccc(-c3cc(-c4ccc5c(c4)CCNC5=O)c(N)nc3F)cc2)C1` [I-125, 6-(2-amino-6-fluoro-5-(4-((1R,5S)-3-(2-hydroxy-2-methylpropyl)-3-azabicyclo[3.1.0]hexan-1-yl)phenyl)pyridin-3-yl)-3,4-dihydroisoquinolin-1(2H)-one], the 50% inhibitory concentration (IC50) is 0.1 to 10 nM in test [1] and above 1000 nM on Lck (h) (read-out: Lck IC50 nM Range*).

On to `Nc1nc(F)c(-c2ccc(C3CCN(CC(F)F)CC3)cc2)cc1-c1cc2c(cc1F)C(=O)NCC2` [I-256, 6-(2-amino-5-(4-(1-(2,2-difluoroethyl)piperidin-4-yl)phenyl)-6-fluoropyridin-3-yl)-7-fluoro-3,4-dihydroisoquinolin-1(2H)-one], for which the IC50 in test [1] is 0.1 to 10 nM; on Lck (h) (read-out: Lck IC50 nM Range*), above 1000 nM.

For `CN(C)Cc1cc(-c2cc(-c3ccc4c(c3)CCNC4=O)c(N)nc2F)ccc1N1CCN(C2CCCC2)CC1` [I-451, 6-(2-amino-5-(4-(4-cyclopentylpiperazin-1-yl)-3-((dimethylamino)methyl)phenyl)-6-fluoropyridin-3-yl)-3,4-dihydroisoquinolin-1(2H)-one], the figures for the half-maximal inhibitory concentration (IC50) (in test [1]; on Lck (h) (read-out: Lck IC50 nM Range*)) were 0.1 to 10 nM and above 1000 nM, respectively.

On to `CO[C@H]1CCN(c2ccc(-c3cc(-c4ccc5c(c4)CCNC5=O)c(N)nc3F)cc2)C1` [I-115, (S)-6-(2-amino-6-fluoro-5-(4-(3-methoxypyrrolidin-1-yl)phenyl)pyridin-3-yl)-3,4-dihydroisoquinolin-1(2H)-one], for which the IC50 in test [1] is 0.1 to 10 nM; at Lck (h) (read-out: Lck IC50 nM Range*), above 1000 nM.

In the case of `CN1CCN(c2ccc(-c3cc(-c4cc5c(cc4F)C(=O)NCC5)c(N)nc3F)cc2C(F)(F)F)CC1` [I-249, 6-(2-amino-6-fluoro-5-(4-(4-methylpiperazin-1-yl)-3-(trifluoromethyl)phenyl)pyridin-3-yl)-7-fluoro-3,4-dihydroisoquinolin-1(2H)-one], the values for the IC50 (in test [1]; at Lck (h) (read-out: Lck IC50 nM Range* (number printed instead of a class))) were 0.1 to 10 nM and 381 nM, respectively.

With `CC(=O)N1CCC(Oc2ccc(-c3cc(-c4ccc5c(c4)CCNC5=O)c(N)nc3F)cc2)CC1` [I-34, 6-(5-(4-((1-acetylpiperidin-4-yl)oxy)phenyl)-2-amino-6-fluoropyridin-3-yl)-3,4-dihydroisoquinolin-1(2H)-one], the 50% inhibitory concentration (IC50) in test [1] was 0.1 to 10 nM; at Lck (h) (read-out: Lck IC50 nM Range*) it was above 1000 nM.

Regarding `Nc1nc(F)c(-c2ccc3c(c2)CCNC3=O)cc1-c1ccc2c(c1)CCNC2=O` [I-333, 6,6′-(2-amino-6-fluoropyridine-3,5-diyl)bis(3,4-dihydroisoquinolin-1(2H)-one)], the half-maximal inhibitory concentration (IC50) in test [1] is 0.1 to 10 nM; on Lck (h) (read-out: Lck IC50 nM Range*), above 1000 nM.

As for `Nc1nc(F)c(-c2cccc(CN3CCNCC3)c2)cc1-c1ccc2c(c1)CCNC2=O` [I-265, 6-(2-amino-6-fluoro-5-(3-(piperazin-1-ylmethyl)phenyl)pyridin-3-yl)-3,4-dihydroisoquinolin-1(2H)-one formate], the half-maximal inhibitory concentration (IC50) in test [1] is 11 to 100 nM; on Lck (h) (read-out: Lck IC50 nM Range*) it was above 1000 nM.

With `C[C@@H]1CN(c2ccc(-c3cc(-c4ccc5c(c4)CCNC5=O)c(N)nc3F)cc2)C[C@H](C)N1C(=O)OC(C)(C)C` [I-284, tert-butyl (2R,6S)-4-(4-(6-amino-2-fluoro-5-(1-oxo-1,2,3,4-tetrahydroisoquinolin-6-yl)pyridin-3-yl)phenyl)-2,6-dimethylpiperazine-1-carboxylate], the IC50 in test [1] was 11 to 100 nM; on Lck (h) (read-out: Lck IC50 nM Range*) it was above 1000 nM.

Regarding `N#Cc1cc(-c2cc(-c3cc4c(cc3F)C(=O)NCC4)c(N)nc2F)ccc1OC1CCN(CC(F)(F)F)CC1` [I-293, 5-(6-amino-2-fluoro-5-(7-fluoro-1-oxo-1,2,3,4-tetrahydroisoquinolin-6-yl)pyridin-3-yl)-2-((1-(2,2,2-trifluoroethyl)piperidin-4-yl)oxy)benzonitrile], the figures for the IC50 (in test [1]; on Lck (h) (read-out: Lck IC50 nM Range*)) were 11 to 100 nM and above 1000 nM, respectively.

`CC(C)N1CCc2cc(-c3cc(-c4ccc5c(c4)CCNC5=O)c(N)nc3F)nn2CC1=O` [I-228, 2-(6-amino-2-fluoro-5-(1-oxo-1,2,3,4-tetrahydroisoquinolin-6-yl)pyridin-3-yl)-6-isopropyl-5,6-dihydro-4H-pyrazolo[1,5-d][1,4]diazepin-7(8H)-one]: the 50% inhibitory concentration (IC50) in test [1] was 11 to 100 nM; at Lck (h) (read-out: Lck IC50 nM Range*), above 1000 nM.

Regarding `COCCN1CCOCC1c1ccc(-c2cc(-c3ccc4c(c3)CCNC4=O)c(N)nc2F)cc1` (stereo not shown) [I-134, 6-(2-amino-6-fluoro-5-(4-(4-(2-methoxyethyl)morpholin-3-yl)phenyl)pyridin-3-yl)-3,4-dihydroisoquinolin-1(2H)-one], the half-inhibitory concentration (IC50) in test [1] is 0.1 to 10 nM; on Lck (h) (read-out: Lck IC50 nM Range*), above 1000 nM.

With `CC(C)N1CCN(c2ccc(-c3cc(-c4ccc5c(c4)CCNC5=O)c(N)nc3F)cc2)CC1` [I-42, 6-(2-amino-6-fluoro-5-(4-(4-isopropylpiperazin-1-yl)phenyl)pyridin-3-yl)-3,4-dihydroisoquinolin-1(2H)-one], the IC50 is 0.1 to 10 nM in test [1] and above 1000 nM at Lck (h) (read-out: Lck IC50 nM Range*).

With `CCN1CCN(c2ccc(-c3cc(-c4cc(F)c5c(=O)[nH]ccc5c4)c(N)nc3F)cc2)CC1` [I-394, 6-(2-amino-5-(4-(4-ethylpiperazin-1-yl)phenyl)-6-fluoropyridin-3-yl)-8-fluoroisoquinolin-1(2H)-one], the concentration for half-maximal inhibition (IC50) fell in the range of 0.1 to 10 nM in test [1] and 101 to 1000 nM on Lck (h) (read-out: Lck IC50 nM Range*).

Take `Nc1nc(F)c(-c2ccc(CN3CCOCC3)cc2)cc1-c1ccc2c(c1)CCNC2=O` [I-257, 6-(2-amino-6-fluoro-5-(4-(morpholinomethyl)phenyl)pyridin-3-yl)-3,4-dihydroisoquinolin-1(2H)-one]: the half-maximal inhibitory concentration (IC50) was 11 to 100 nM in test [1] and above 1000 nM on Lck (h) (read-out: Lck IC50 nM Range*).
